Six compounds from Sander's compilation of Henry's law constants (doi:10.1002/etc.5620201008) can be followed below.

Common to all, as to conditions: reference: Kochetkov et al. (2001)
A short description of series [1]: Henry solubility constant Hcp at 301 K (mol/(m3 Pa)).
Series [2] is described as follows: Henry solubility constant Hcp at 299 K (mol/(m3 Pa)).
Series [3] can be described thus: Henry solubility constant Hcp at 300 K (mol/(m3 Pa)).

Molecules are shown by their SMILES. Values joined by “and” are separate entries in the source; they are usually repeats but may differ in a detail not shown here. Equal entries are not always repeated.

For the compound `c1ccccc1` [benzene], the “Henry solubility constant Hcp at 301 K” value in series [1] is 0.0021 and 0.0017. With `C[Si]1(C)O[Si](C)(C)O[Si](C)(C)O[Si](C)(C)O[Si](C)(C)O1` [decamethylcyclopentasiloxane], in series [2], the “Henry solubility constant Hcp at 299 K” value is 3.4e-05 and 3.1e-05. Take `C[Si](C)(C)O[Si](C)(C)O[Si](C)(C)O[Si](C)(C)C` [decamethyltetrasiloxane]: in series [3], the “Henry solubility constant Hcp at 300 K” value was 5.8e-07. `C[Si]1(C)O[Si](C)(C)O[Si](C)(C)O[Si](C)(C)O[Si](C)(C)O[Si](C)(C)O1` [dodecamethylcyclohexasiloxane]: the “Henry solubility constant Hcp at 299 K” value in series [2] is 6.8e-05 and 0.00015. On to `C[Si](C)(C)O[Si](C)(C)C` [hexamethyldisiloxane], for which the “Henry solubility constant Hcp at 300 K” value in series [3] was 0.00017 and 0.00031. Regarding `C[Si](C)(C)O[Si](C)(C)O[Si](C)(C)C` [octamethyltrisiloxane], the “Henry solubility constant Hcp at 300 K” value in series [3] is 3.3e-06 and 2.7e-06.
